Experiments:
[1] = tested on: BALB/c mice, OVA induced inflammation and AHR; test: Ovalbumin-induced airway inflammation and AHR mouse model; assay type: in vivo; conditions: HPBCD 10 mM inhalation
Procedure: Two intranasal instillations of house dust mite were performed on days 0 and 7 to induce the migration of specific memory CD4+ T-cells into lung parenchyma, followed by a challenge instillation on day 14. […] The last house dust mite instillation was preceded by two days of HPBCD or PBS inhalations and followed by three inhalations until sacrifice (FIG. 1A). […] Airway responsiveness was evaluated by exposing animals to increasing doses of inhaled methacholine and by measuring Newtonian resistances representing the resistance of central or conducting airways. […] The bronchoalveolar lavage fluid (BALF) was then recovered and analyzed for cell content. […] The effect of HPBCD inhalation on T-cell numbers in lung parenchyma was investigated by flow cytometry.
Mice were lightly isoflurane-anesthetized and received an intra-nasal (i.n) instillation of HDM extract (100 μg; 50 μl) in endotoxin-free saline on days 0, 7 and 14. Mice were subjected to inhalation (generated by ultrasonic nebulizer (Devilbiss 2000)) of HPBCD 10 mM or endotoxin-free saline for 40 minutes between day 12 and 16. On day 14, they received the inhalation 1 h before the last i.n. instillation of HDM. After measurement of bronchial responsiveness using the FlexiVent System, mice were sacrificed on day 17. Mice submitted to ovalbumin as allergen were i.p injected with 10 mcg ovalbumin grade 5 and exposed to ovalbumin grade 3 by inhalation between day 21 and 25. Mice were treated with HPBCD 10 mM given by inhalation between day 19 and 25. […]
Mice were anesthetized by intraperitoneal injection with a mixture of ketamine (10 mg/ml, Merial, Brussel, Belgium) and xylazine (1 mg/ml, VMD, Arendonk, Belgium). […] Respiratory parameters following methacholine challenge (3, 6, and 12 gr/l (or 24 gr/l)) were evaluated using a 3 sec broadband signal to measure input impedance from 1 to 20.5 Hz and to calculate constant-phase model parameters (Quick-prime 3). Newtonian resistance (Rn) was the main parameter measured during the challenge. […]

[2] = tested on: mild to moderate asthmatic patients sensitized to HDM; test: Phase 2a proof of concept clinical trial, HDM allergen challenge (FEV1); assay type: in vivo, human
Excerpt: Seventeen mild to moderate asthmatics sensitized to HDM were included in a double blind crossover study comprising allergen challenges with HDM. […] These experiments show a significant effect of HPBCD inhalation on the prevention of allergen-induced FEV1 decrease during the late phase.
Clinical trial protocols have been approved by an independent ethical committee (CHU Liege—University of Liege) in accordance with GCPs, Declaration of Helsinki and European regulations (EudraCT). All participants gave written informed consent before any study-specific procedure. For the phase 1 clinical trial, 8 healthy subjects (4 women and 4 men) from 18 to 40 years were recruited and enrolled in the study at the University Hospital of Liege (Belgium). Patients were randomized and received first the placebo (NaCl 0.9%) or HPBCD at 2.5 mM and 8 days after, the opposite treatment. After 1 week, all patients received HPBCD at 15 mM. One month later, all patients received HPBCD at 15 mM during 5 consecutive days. Apyrogenic and sterile HPBCD powder was diluted with NaCl 0.9% before inhalation (8 ml) with an ultrasonic nebulizer (Devilbiss 2000). General symptoms, asthma scores (ACQ), dyspnea, chest Rx, clinical biology, ECG, vital signs, spirometry, NO, sputum (induced by NaCl 4.5%) were analyzed after treatment periods. The second clinical trial (phase 2a-proof of concept) was a double-blinded, cross-over, placebo-controlled study. 17 mild to moderate asthmatic patients were included in the study at two different sites (University Hospital of Liege and University Hospital Erasme) in Belgium. Characterization visits consisted of dyspnea symptoms recording, ECG, chest Rx, clinical biology, spirometry and vital signs analysis. PD20 (provocative dose that causes a 20% fall in FEV1 from the saline alone value) to inhaled allergen was determined. […] The PD20 of the allergen was calculated from a cumulative dose-response curve, as described previously, Cataldo et al., Matrix metalloproteinase-9, but not tissue inhibitor of matrix metalloproteinase-1, increases in the sputum from allergic asthmatic patients after allergen challenge, Chest. 2002; 122(5):1553-9. All […] received a cumulative concentration of Dermatophagoides pteronyssinus with a reactivity index of 6. After 14 days wash-out period, patients were randomly divided into two groups and received either HPBCD 15 mM or Placebo (NaCl 0.9%) by inhalation (ultrasonic nebulizer (Devilbiss 2000)) twice daily. At the end of this treatment period, lung function (FEV1) was analyzed after allergen (HDM) challenge under the supervision of experienced respiratory clinical physiologists. FEV1 was measured after allergen inhalation challenge at 5, 15, 30, 60, 120, 180, 240, 300 and 360 min. After 28 days wash-out period, patients received the opposite treatment for another 14 days and the FEV1 following allergen challenge was evaluated. All clinical parameters were examined after each treatment period. The endpoint of this proof of concept study was changes in FEV1 over 0-360 min post-allergen challenges. FEV1 in early phase (0-60 min) and late phase (180-360 min) were expressed as: area under the FEV1-versus-time curve (AUC), maximum percentage fall and average percentage fall (calculated by dividing the area under the curve of the percentage fall in FEV1 by the duration of the response period). One patient who received placebo had negative maximum FEV1 decrease and negative average percentage fall in FEV1. These negative values were truncated to 0. Patients had access to […] (salbutamol 100 μg) throughout the study as an «as needed» treatment. […]

Which results are given for `CC(O)COC[C@H]1O[C@@H]2O[C@H]3[C@H](O)[C@@H](O)[C@@H](O[C@H]4[C@H](O)[C@@H](O)[C@@H](O[C@H]5[C@H](O)[C@@H](O)[C@@H](O[C@H]6[C@H](O)[C@@H](O)[C@@H](O[C@H]7[C@H](O)[C@@H](O)[C@@H](O[C@H]8[C@H](O)[C@@H](O)[C@@H](O[C@H]1[C@H](O)[C@H]2O)O[C@@H]8COCC(C)O)O[C@@H]7COCC(C)O)O[C@@H]6COCC(C)O)O[C@@H]5COCC(C)O)O[C@@H]4COCC(C)O)O[C@@H]3COCC(C)O` (stereo partly drawn) [HPBCD, 2-hydroxypropyl-beta-cyclodextrin]?
airway hyperresponsiveness induced by ovalbumin ([1]; FIG. 2B): significantly decrease; number of inflammatory cells in BALF ([1]; FIG. 2C): significantly decrease; number of eosinophils around the bronchi ([1]; FIG. 2D): significantly decrease; decrease in FEV1 after HDM challenge (AUC 0-360 min) ([2]; HPBCD 15 mM inhalation twice daily vs placebo, FIG. 5B): lower decrease in FEV1; maximum FEV1 decrease after HDM challenge ([2]; HPBCD 15 mM vs placebo, FIG. 5D): significantly lower; average percentage FEV1 decrease after HDM challenge ([2]; HPBCD 15 mM vs placebo, FIG. 5E): significantly lower; hematology, serum biochemistry, urinalysis, vital signs, ECG tests and chest X-ray ([2]; between treatment groups): No significant changes; FEV1 decrease during the early bronchoconstriction phase ([2]; early phase 0-60 min, HPBCD vs placebo): No significant differences; prevention of FEV1 decrease during the late phase reaction (AUC) ([2]; late phase 180-360 min, HPBCD 15 mM vs placebo, FIG. 5C): predominant effect
